Experimental data from PubChem BioAssay AID1963862 (Molecular Pharmacology Branch, DTP, NCI, 2024).
pIC50: −log10 of the molar value.

Test system: KRAS patient-derived spheroids with HUVEC/MSC, viability
Assay: Anticancer human tumor 941728-121-R-J1-PDC patient-derived lung adenocarcinoma cell line growth inhibition [KRAS2]
Settings: for pIC50: curve of first compound; for viability, T/C: stronger effect = lower value
Procedure, shortened: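 Combination screen of spheroid viability in tumor-cell co-cultures with endothelial (HUVEC) and mesenchymal stem cell stroma. Each agent was tested in half-log dilutions, topping at clinical Cmax or at 10 microM without a known Cmax.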

[1] = second compound 0.1 µM, first compound 0.0316 µM
[2] = second compound 0.1 µM, first compound 0.1 µM
[3] = second compound 0.1 µM, first compound 0.316 µM
[4] = second compound 0.1 µM, first compound 1 µM
[5] = second compound 0.1 µM, first compound 3.16 µM
[6] = second compound 0.1 µM, first compound 10 µM
[7] = second compound 0.316 µM, first compound 0.0316 µM
[8] = second compound 0.316 µM, first compound 0.1 µM
[9] = second compound 0.316 µM, first compound 0.316 µM
[10] = second compound 0.316 µM, first compound 1 µM
[11] = second compound 0.316 µM, first compound 3.16 µM
[12] = second compound 0.316 µM, first compound 10 µM
[13] = second compound 1 µM, first compound 0.0316 µM
[14] = second compound 1 µM, first compound 0.1 µM
[15] = second compound 1 µM, first compound 0.316 µM
[16] = second compound 1 µM, first compound 1 µM
[17] = second compound 1 µM, first compound 3.16 µM
[18] = second compound 1 µM, first compound 10 µM
[19] = second compound 3.16 µM, first compound 0.0316 µM
[20] = second compound 3.16 µM, first compound 0.1 µM
[21] = second compound 3.16 µM, first compound 0.316 µM
[22] = second compound 3.16 µM, first compound 1 µM
[23] = second compound 3.16 µM, first compound 3.16 µM
[24] = second compound 3.16 µM, first compound 10 µM
[25] = second compound 10 µM, first compound 0.0316 µM
[26] = second compound 10 µM, first compound 0.1 µM
[27] = second compound 10 µM, first compound 0.316 µM
[28] = second compound 10 µM, first compound 1 µM
[29] = second compound 10 µM, first compound 3.16 µM
[30] = second compound 10 µM, first compound 10 µM
[31] = second compound 0.1 µM, first compound 0.00316 µM
[32] = second compound 0.1 µM, first compound 0.01 µM
[33] = second compound 0.316 µM, first compound 0.00316 µM
[34] = second compound 0.316 µM, first compound 0.01 µM
[35] = second compound 1 µM, first compound 0.00316 µM
[36] = second compound 1 µM, first compound 0.01 µM
[37] = second compound 3.16 µM, first compound 0.00316 µM
[38] = second compound 3.16 µM, first compound 0.01 µM
[39] = second compound 10 µM, first compound 0.00316 µM
[40] = second compound 10 µM, first compound 0.01 µM
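Also: spheroids exposed to agents for seven days before readout.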

Row | Structure (SMILES) | pIC50 (second compound 0.1 µM) | pIC50 (second compound 0.316 µM) | pIC50 (second compound 1 µM) | pIC50 (second compound 3.16 µM) | pIC50 (second compound 10 µM) | viability, T/C [1] [%] | viability, T/C [2] [%] | viability, T/C [3] [%] | viability, T/C [4] [%] | viability, T/C [7] [%] | viability, T/C [8] [%] | viability, T/C [9] [%] | viability, T/C [10] [%] | viability, T/C [13] [%] | viability, T/C [14] [%] | viability, T/C [15] [%] | viability, T/C [19] [%] | viability, T/C [20] [%] | viability, T/C [25] [%] | viability, T/C [26] [%] | also measured
1 | CC(C)NCC(C(=O)N1CCN(c2ncnc3c2C(C)CC3O)CC1)c1ccc(Cl)cc1 (stereo not given) + COc1cc2nc(C)nc(NC(C)c3cc(N)cc(C(F)(F)F)c3)c2cc1OC1CCOC1 | 7.49 | > 7.50 | > 7.50 | > 7.50 | > 7.50 | 49.7 | 46.5 | 34.1 | 23.4 | 44 | 41.4 | 32.5 | 21.5 | 40.4 | 34.8 | 29.7 | 35.1 | 35.2 | 13.4 | 9.39 | viability, T/C [5]: 11.8%; viability, T/C [6]: 8.21%; viability, T/C [11]: 10.3%; viability, T/C [12]: 11.1%; viability, T/C [16]: 23.1%; viability, T/C [17]: 10.3%; viability, T/C [18]: 1.68%; viability, T/C [21]: 36.7%; viability, T/C [22]: 13%; viability, T/C [23]: 5.96%; viability, T/C [24]: 5.42%; viability, T/C [27]: 3.04%; viability, T/C [28]: 1.04%; viability, T/C [29]: 0.52%; viability, T/C [30]: 0.66%
2 | CC1(C)CCC(CN2CCN(c3ccc(C(=O)NS(=O)(=O)c4ccc(NCC5CCOCC5)c([N+](=O)[O-])c4)c(Oc4cnc5[nH]ccc5c4)c3)CC2)=C(c2ccc(Cl)cc2)C1 + COc1cc2nc(C)nc(NC(C)c3cc(N)cc(C(F)(F)F)c3)c2cc1OC1CCOC1 | > 7.50 | > 7.50 | > 7.50 | > 7.50 | > 7.50 | 38.8 | 40.6 | 36.4 | 33.9 | 36.7 | 33 | 38.5 | 31.8 | 35.2 | 46.4 | 34.4 | 39.2 | 34 | 19.6 | 19.7 | viability, T/C [5]: 6.79%; viability, T/C [6]: 4.58%; viability, T/C [11]: 7.02%; viability, T/C [12]: 3.43%; viability, T/C [16]: 32.2%; viability, T/C [17]: 7.71%; viability, T/C [18]: 1.61%; viability, T/C [21]: 32.2%; viability, T/C [22]: 29.6%; viability, T/C [23]: 5.76%; viability, T/C [24]: 3.49%; viability, T/C [27]: 17.5%; viability, T/C [28]: 7.37%; viability, T/C [29]: 1.44%; viability, T/C [30]: 0.52%
3 | CCN1CCN(Cc2ccc(Nc3ncc(F)c(-c4cc(F)c5nc(C)n(C(C)C)c5c4)n3)nc2)CC1 + COc1cc2nc(C)nc(NC(C)c3cc(N)cc(C(F)(F)F)c3)c2cc1OC1CCOC1 | > 8.50 | > 8.50 | > 8.50 | > 8.50 | > 8.50 | 34.2 | 36.8 | 42 | 43.3 | 28.8 | 31.7 | 35.3 | 40.8 | 28.5 | 27.7 | 22.1 | 21.1 | 19.5 | 2.12 | 0.46 | viability, T/C [31]: 45.9%; viability, T/C [32]: 41%; viability, T/C [33]: 44.2%; viability, T/C [34]: 35.3%; viability, T/C [35]: 27.8%; viability, T/C [36]: 28.7%; viability, T/C [16]: 32.9%; viability, T/C [37]: 23.3%; viability, T/C [38]: 22.7%; viability, T/C [21]: 15.6%; viability, T/C [22]: 14.5%; viability, T/C [39]: 17.2%; viability, T/C [40]: 6.08%; viability, T/C [27]: 0.87%; viability, T/C [28]: 0.85%
4 | Cn1ncnc1[C@H]1c2n[nH]c(=O)c3cc(F)cc(c23)N[C@@H]1c1ccc(F)cc1 + COc1cc2nc(C)nc(NC(C)c3cc(N)cc(C(F)(F)F)c3)c2cc1OC1CCOC1 | < 7.00 | > 9.50 | > 9.50 | > 9.50 | > 9.50 | 66.2 | 58.8 |  |  | 47.6 | 48 |  |  | 33.5 | 28.7 |  | 22.1 | 23.6 | 9.61 | 10.3 | viability, T/C (second compound 0.1 µM, first compound 0.000316 µM): 61.1%; viability, T/C (second compound 0.1 µM, first compound 0.001 µM): 51.9%; viability, T/C [31]: 47.1%; viability, T/C [32]: 52.2%; viability, T/C (second compound 0.316 µM, first compound 0.000316 µM): 48.9%; viability, T/C (second compound 0.316 µM, first compound 0.001 µM): 41.8%; viability, T/C [33]: 36.7%; viability, T/C [34]: 36.8%; viability, T/C (second compound 1 µM, first compound 0.000316 µM): 41.6%; viability, T/C (second compound 1 µM, first compound 0.001 µM): 31.4%; viability, T/C [35]: 30.7%; viability, T/C [36]: 25.6%; viability, T/C (second compound 3.16 µM, first compound 0.000316 µM): 36.6%; viability, T/C (second compound 3.16 µM, first compound 0.001 µM): 34.4%; viability, T/C [37]: 32.1%; viability, T/C [38]: 27.4%; viability, T/C (second compound 10 µM, first compound 0.000316 µM): 14.5%; viability, T/C (second compound 10 µM, first compound 0.001 µM): 11.8%; viability, T/C [39]: 13.1%; viability, T/C [40]: 8%
